Among the data in ChEMBL document CHEMBL2073867, “cDNA cloning and inducible expression of human multidrug resistance associated protein 3 (MRP3)” (FEBS Lett, 1998) are Activity values, retold here.

Data set [1] has as its target Multidrug resistance associated protein (Homo sapiens) (UniProt Q96QA9). Nature of the data set: (§1) TP_TRANSPORTER: Northern blot from HepG2 cells. Type of data set: functional, cell-based.
Data set [2] concerns the target Multidrug resistance-associated protein 1 (Homo sapiens, UniProt P33527). The data set is described as §1. Type of data set: functional, cell-based.

Multidrug resistance-associated protein 1, sequence (P33527 whole entry): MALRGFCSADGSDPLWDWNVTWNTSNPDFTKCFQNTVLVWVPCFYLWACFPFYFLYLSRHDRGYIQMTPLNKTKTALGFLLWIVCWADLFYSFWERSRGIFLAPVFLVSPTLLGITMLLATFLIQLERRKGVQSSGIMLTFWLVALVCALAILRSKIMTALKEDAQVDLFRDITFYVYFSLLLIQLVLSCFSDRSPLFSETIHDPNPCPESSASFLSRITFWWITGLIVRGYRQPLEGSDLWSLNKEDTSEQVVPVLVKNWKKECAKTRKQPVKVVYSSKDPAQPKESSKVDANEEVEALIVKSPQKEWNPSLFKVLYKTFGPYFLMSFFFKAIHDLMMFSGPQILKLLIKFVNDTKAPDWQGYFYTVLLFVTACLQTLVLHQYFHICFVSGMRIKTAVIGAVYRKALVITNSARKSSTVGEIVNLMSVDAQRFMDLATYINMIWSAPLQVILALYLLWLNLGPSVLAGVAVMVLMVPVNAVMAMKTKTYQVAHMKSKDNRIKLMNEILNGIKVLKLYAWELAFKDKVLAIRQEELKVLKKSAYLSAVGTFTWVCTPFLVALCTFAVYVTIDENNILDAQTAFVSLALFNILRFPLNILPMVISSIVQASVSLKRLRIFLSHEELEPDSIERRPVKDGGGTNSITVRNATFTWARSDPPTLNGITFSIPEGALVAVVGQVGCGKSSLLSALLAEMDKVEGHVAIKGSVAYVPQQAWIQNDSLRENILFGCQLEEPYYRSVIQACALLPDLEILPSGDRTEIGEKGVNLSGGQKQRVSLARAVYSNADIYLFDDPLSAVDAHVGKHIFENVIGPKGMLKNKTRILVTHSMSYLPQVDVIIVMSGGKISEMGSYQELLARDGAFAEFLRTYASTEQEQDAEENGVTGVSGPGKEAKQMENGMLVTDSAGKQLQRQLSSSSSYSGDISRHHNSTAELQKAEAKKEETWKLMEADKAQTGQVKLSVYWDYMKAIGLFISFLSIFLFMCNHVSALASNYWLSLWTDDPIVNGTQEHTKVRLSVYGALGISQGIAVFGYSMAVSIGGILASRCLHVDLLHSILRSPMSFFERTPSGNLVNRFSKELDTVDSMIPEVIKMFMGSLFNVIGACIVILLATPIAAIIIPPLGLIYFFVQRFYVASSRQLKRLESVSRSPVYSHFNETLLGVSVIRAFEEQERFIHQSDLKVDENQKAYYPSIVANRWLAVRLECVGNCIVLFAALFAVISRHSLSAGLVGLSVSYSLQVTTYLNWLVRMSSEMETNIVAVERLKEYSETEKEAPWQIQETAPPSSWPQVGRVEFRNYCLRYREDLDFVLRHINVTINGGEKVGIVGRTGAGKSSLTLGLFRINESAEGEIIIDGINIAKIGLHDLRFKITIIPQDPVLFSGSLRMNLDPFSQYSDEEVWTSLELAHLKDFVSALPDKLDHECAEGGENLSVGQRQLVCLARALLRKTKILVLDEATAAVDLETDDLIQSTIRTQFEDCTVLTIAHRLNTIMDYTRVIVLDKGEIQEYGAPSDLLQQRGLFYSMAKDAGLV
Multidrug resistance associated protein (Homo sapiens), sequence (Q96QA9 as listed by the source): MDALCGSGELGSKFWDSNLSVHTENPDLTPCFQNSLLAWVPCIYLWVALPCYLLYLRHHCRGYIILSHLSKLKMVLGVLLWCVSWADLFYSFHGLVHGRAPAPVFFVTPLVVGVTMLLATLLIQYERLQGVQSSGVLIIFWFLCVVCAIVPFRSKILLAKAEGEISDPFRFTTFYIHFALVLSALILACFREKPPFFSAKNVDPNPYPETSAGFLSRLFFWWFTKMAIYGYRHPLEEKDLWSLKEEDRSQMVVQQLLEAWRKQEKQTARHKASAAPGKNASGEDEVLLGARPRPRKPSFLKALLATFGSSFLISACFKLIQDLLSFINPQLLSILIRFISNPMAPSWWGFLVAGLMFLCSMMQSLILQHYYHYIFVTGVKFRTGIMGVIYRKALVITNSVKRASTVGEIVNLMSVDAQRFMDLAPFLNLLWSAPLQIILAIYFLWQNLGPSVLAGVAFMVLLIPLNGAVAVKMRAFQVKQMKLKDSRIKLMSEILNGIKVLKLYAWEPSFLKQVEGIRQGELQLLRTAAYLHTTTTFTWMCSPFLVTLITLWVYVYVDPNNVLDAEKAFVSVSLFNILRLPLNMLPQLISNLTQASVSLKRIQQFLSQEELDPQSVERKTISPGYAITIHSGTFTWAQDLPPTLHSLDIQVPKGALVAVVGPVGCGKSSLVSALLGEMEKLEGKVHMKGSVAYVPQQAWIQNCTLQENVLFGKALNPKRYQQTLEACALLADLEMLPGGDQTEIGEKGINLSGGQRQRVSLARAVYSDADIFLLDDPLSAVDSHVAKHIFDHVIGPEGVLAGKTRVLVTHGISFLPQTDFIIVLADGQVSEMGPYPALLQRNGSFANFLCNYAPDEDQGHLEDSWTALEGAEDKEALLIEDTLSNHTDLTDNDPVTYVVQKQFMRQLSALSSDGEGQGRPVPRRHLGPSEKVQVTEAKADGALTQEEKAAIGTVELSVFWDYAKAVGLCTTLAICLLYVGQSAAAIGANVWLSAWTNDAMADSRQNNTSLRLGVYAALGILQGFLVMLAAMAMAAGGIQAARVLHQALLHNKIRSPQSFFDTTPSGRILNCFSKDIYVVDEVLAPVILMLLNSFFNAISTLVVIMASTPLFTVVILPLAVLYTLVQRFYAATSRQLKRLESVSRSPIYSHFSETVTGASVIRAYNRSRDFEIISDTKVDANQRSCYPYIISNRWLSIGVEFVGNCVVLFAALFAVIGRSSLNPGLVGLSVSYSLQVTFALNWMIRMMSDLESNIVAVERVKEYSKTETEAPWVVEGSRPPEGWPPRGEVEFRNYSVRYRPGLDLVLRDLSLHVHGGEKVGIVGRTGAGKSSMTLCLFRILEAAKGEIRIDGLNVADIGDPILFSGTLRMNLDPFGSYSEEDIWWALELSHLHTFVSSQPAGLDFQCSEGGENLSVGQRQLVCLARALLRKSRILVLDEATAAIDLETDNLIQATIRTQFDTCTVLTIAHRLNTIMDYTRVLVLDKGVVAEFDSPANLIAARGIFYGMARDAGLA

On to `CCC1(c2ccccc2)C(=O)NC(=O)NC1=O` [PHENOBARBITAL], for which the Activity result in data set [1] and in data set [2] was “inducer [+]” each time.
